Reference: PubChem BioAssay (NCI)
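Briefly, cells in 96-well plates were exposed to five compound concentrations for 48 h, and endpoints were estimated by linear interpolation. At the GI50, growth is halved. TGI: total growth inhibition.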

Key:
Test in all cases: inhibition of tumour cell growth, NCI panel, 48 h
MDA-MB-435 = tested on: MDA-MB-435
SR leukemia = tested on: SR leukemia
IGROV1 ovarian = tested on: IGROV1 ovarian
HS 578T breast = tested on: HS 578T breast
SK-MEL-2 melanoma = tested on: SK-MEL-2 melanoma
OVCAR-4 ovarian = tested on: OVCAR-4 ovarian
COLO 205 colon = tested on: COLO 205 colon
LOX IMVI melanoma = tested on: LOX IMVI melanoma
SNB-75 CNS = tested on: SNB-75 CNS
UACC-257 melanoma = tested on: UACC-257 melanoma
EKVX NSCLC = tested on: EKVX NSCLC
RXF 393 renal = tested on: RXF 393 renal
HOP-92 NSCLC = tested on: HOP-92 NSCLC
A549 NSCLC = tested on: A549 NSCLC
SW-620 colon = tested on: SW-620 colon
OVCAR-3 ovarian = tested on: OVCAR-3 ovarian
HOP-62 NSCLC = tested on: HOP-62 NSCLC
MDA-MB-468 breast = tested on: MDA-MB-468 breast
A498 renal = tested on: A498 renal
SF-268 CNS = tested on: SF-268 CNS
T-47D breast = tested on: T-47D breast
SF-295 CNS = tested on: SF-295 CNS
SK-MEL-28 melanoma = tested on: SK-MEL-28 melanoma
UACC-62 melanoma = tested on: UACC-62 melanoma
K-562 leukemia = tested on: K-562 leukemia
MOLT-4 leukemia = tested on: MOLT-4 leukemia
M14 melanoma = tested on: M14 melanoma
MDA-MB-231 breast = tested on: MDA-MB-231 breast
SK-MEL-5 melanoma = tested on: SK-MEL-5 melanoma
HCT-15 colon = tested on: HCT-15 colon
U251 CNS = tested on: U251 CNS
SF-539 CNS = tested on: SF-539 CNS
TK-10 renal = tested on: TK-10 renal
PC-3 prostate = tested on: PC-3 prostate
HCT-116 colon = tested on: HCT-116 colon
UO-31 renal = tested on: UO-31 renal
OVCAR-8 ovarian = tested on: OVCAR-8 ovarian
786-0 renal = tested on: 786-0 renal
KM12 colon = tested on: KM12 colon
MALME-3M melanoma = tested on: MALME-3M melanoma
CAKI-1 renal = tested on: CAKI-1 renal
CCRF-CEM leukemia = tested on: CCRF-CEM leukemia
NCI-H226 lung = tested on: NCI-H226 lung
MCF7 breast = tested on: MCF7 breast
ACHN renal = tested on: ACHN renal
DU-145 prostate = tested on: DU-145 prostate
OVCAR-5 ovarian = tested on: OVCAR-5 ovarian
HCC-2998 colon = tested on: HCC-2998 colon
SNB-19 CNS = tested on: SNB-19 CNS
RPMI-8226 leukemia = tested on: RPMI-8226 leukemia
SN12C renal = tested on: SN12C renal
NCI-H23 lung = tested on: NCI-H23 lung
HL-60(TB) leukemia = tested on: HL-60(TB) leukemia
SK-OV-3 ovarian = tested on: SK-OV-3 ovarian

O=C1Nc2cc(Cl)ccc2/C1=C/c1cccc(OCc2ccc(Br)cc2F)c1
GI50 (MDA-MB-435): 1.82 µM
TGI (MDA-MB-435): 3.41 µM
GI50 (SR leukemia): 2.15 µM
TGI (SR leukemia): 5.07 µM
GI50 (IGROV1 ovarian): 2.71 µM
TGI (IGROV1 ovarian): 97.7 µM
GI50 (HS 578T breast): 2.17 µM
TGI (HS 578T breast): 5.82 µM
GI50 (SK-MEL-2 melanoma): 2.16 µM
TGI (SK-MEL-2 melanoma): 5.35 µM
GI50 (OVCAR-4 ovarian): 3.55 µM
TGI (OVCAR-4 ovarian): 47.2 µM
GI50 (COLO 205 colon): 3.42 µM
TGI (COLO 205 colon): > 100 µM
GI50 (LOX IMVI melanoma): 2.49 µM
TGI (LOX IMVI melanoma): 8.24 µM
GI50 (SNB-75 CNS): 1.83 µM
TGI (SNB-75 CNS): 5.11 µM
GI50 (UACC-257 melanoma): 8.5 µM
TGI (UACC-257 melanoma): > 100 µM
GI50 (EKVX NSCLC): 3.23 µM
TGI (EKVX NSCLC): > 100 µM
GI50 (RXF 393 renal): 4.47 µM
TGI (RXF 393 renal): 50.4 µM
GI50 (HOP-92 NSCLC): 2.33 µM
TGI (HOP-92 NSCLC): 12.4 µM
GI50 (A549 NSCLC): 4.66 µM
TGI (A549 NSCLC): > 100 µM
GI50 (SW-620 colon): 2.89 µM
TGI (SW-620 colon): > 100 µM
GI50 (OVCAR-3 ovarian): 2.53 µM
TGI (OVCAR-3 ovarian): 7.82 µM
GI50 (HOP-62 NSCLC): 4.02 µM
TGI (HOP-62 NSCLC): 34.2 µM
GI50 (MDA-MB-468 breast): 2.43 µM
TGI (MDA-MB-468 breast): 8.88 µM
GI50 (A498 renal): 7.92 µM
TGI (A498 renal): 57.2 µM
GI50 (SF-268 CNS): 3.33 µM
TGI (SF-268 CNS): > 100 µM
GI50 (T-47D breast): 3.67 µM
TGI (T-47D breast): > 100 µM
GI50 (SF-295 CNS): 3.16 µM
TGI (SF-295 CNS): 14.9 µM
GI50 (SK-MEL-28 melanoma): 4.47 µM
TGI (SK-MEL-28 melanoma): 24.1 µM
GI50 (UACC-62 melanoma): 2.49 µM
TGI (UACC-62 melanoma): 8.8 µM
GI50 (K-562 leukemia): 2.67 µM
TGI (K-562 leukemia): 8.56 µM
GI50 (MOLT-4 leukemia): 2.92 µM
TGI (MOLT-4 leukemia): 9.41 µM
GI50 (M14 melanoma): 2.17 µM
TGI (M14 melanoma): 5.71 µM
GI50 (MDA-MB-231 breast): 2.63 µM
TGI (MDA-MB-231 breast): 12.5 µM
GI50 (SK-MEL-5 melanoma): 3.03 µM
TGI (SK-MEL-5 melanoma): 10.9 µM
GI50 (HCT-15 colon): 2.67 µM
TGI (HCT-15 colon): 12.3 µM
GI50 (U251 CNS): 3.79 µM
TGI (U251 CNS): > 100 µM
GI50 (SF-539 CNS): 1.99 µM
TGI (SF-539 CNS): 4.34 µM
GI50 (TK-10 renal): 14.3 µM
TGI (TK-10 renal): > 100 µM
GI50 (PC-3 prostate): 3.89 µM
TGI (PC-3 prostate): > 100 µM
GI50 (HCT-116 colon): 3.1 µM
TGI (HCT-116 colon): > 100 µM
GI50 (UO-31 renal): 2.05 µM
TGI (UO-31 renal): > 100 µM
GI50 (OVCAR-8 ovarian): 4.32 µM
TGI (OVCAR-8 ovarian): > 100 µM
GI50 (786-0 renal): 3.79 µM
TGI (786-0 renal): > 100 µM
GI50 (KM12 colon): 3.65 µM
TGI (KM12 colon): 41 µM
GI50 (MALME-3M melanoma): 4.15 µM
TGI (MALME-3M melanoma): 20.9 µM
GI50 (CAKI-1 renal): 2.54 µM
TGI (CAKI-1 renal): 13.9 µM
GI50 (CCRF-CEM leukemia): 2.91 µM
TGI (CCRF-CEM leukemia): 10.9 µM
GI50 (NCI-H226 lung): 3.09 µM
TGI (NCI-H226 lung): > 100 µM
GI50 (MCF7 breast): 0.642 µM
TGI (MCF7 breast): 27.8 µM
GI50 (ACHN renal): 3.94 µM
TGI (ACHN renal): > 100 µM
GI50 (DU-145 prostate): 5.97 µM
TGI (DU-145 prostate): > 100 µM
GI50 (OVCAR-5 ovarian): 8.48 µM
TGI (OVCAR-5 ovarian): > 100 µM
GI50 (HCC-2998 colon): 3.71 µM
TGI (HCC-2998 colon): > 100 µM
GI50 (SNB-19 CNS): 3.9 µM
TGI (SNB-19 CNS): > 100 µM
GI50 (RPMI-8226 leukemia): 2.35 µM
TGI (RPMI-8226 leukemia): 12.6 µM
GI50 (SN12C renal): 4.11 µM
TGI (SN12C renal): > 100 µM
GI50 (NCI-H23 lung): 3.88 µM
TGI (NCI-H23 lung): > 100 µM
GI50 (HL-60(TB) leukemia): 1.85 µM
TGI (HL-60(TB) leukemia): 4.53 µM
GI50 (SK-OV-3 ovarian): 14.6 µM
TGI (SK-OV-3 ovarian): > 100 µM
